Data: PubChem BioAssay (NCI)
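Each compound was tested at five concentrations against cells in 96-well plates for 48 hours. Abbreviation: GI50, concentration required for 50% inhibition of growth. TGI marks complete inhibition of growth.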

Assays:
Assay in all cases: NCI tumour cell line growth inhibition, 48 h
DLD-1 colon = test system: DLD-1 colon
DMS 273 small cell lung = test system: DMS 273 small cell lung
LXFL 529 NSCLC = test system: LXFL 529 NSCLC
XF 498 CNS = test system: XF 498 CNS
MDA-N = test system: MDA-N
M19-MEL melanoma = test system: M19-MEL melanoma
RXF-631 renal = test system: RXF-631 renal
P388 leukemia = test system: P388 leukemia
P388/ADR leukemia = test system: P388/ADR leukemia
SN12K1 renal = test system: SN12K1 renal

With `N#CCc1cccc(CC#N)c1Br` the TGI (DLD-1 colon) was > 100 µM, the TGI (DMS 273 small cell lung) was > 100 µM and the TGI (LXFL 529 NSCLC) was > 100 µM. For the same compound, the TGI (XF 498 CNS) was > 100 µM.

With `Cn1c(=O)c2c(nc(N/N=C/c3ccccc3C(=O)O)n2C)n(C)c1=O` the TGI (MDA-N) was > 100 µM.

In the case of `O=C(O)CSc1n[nH]c(-c2ccco2)n1`, the TGI (DLD-1 colon) is reported as > 100 µM, the TGI (DMS 273 small cell lung) is reported as > 100 µM and the TGI (LXFL 529 NSCLC) is reported as > 100 µM. The TGI (M19-MEL melanoma) was > 100 µM, the TGI (RXF-631 renal) was > 100 µM and the TGI (XF 498 CNS) was > 100 µM.

For `O=C1CCC(=O)N1Sc1ccccc1`, the TGI (DLD-1 colon) was > 100 µM, the TGI (DMS 273 small cell lung) was > 100 µM and the TGI (M19-MEL melanoma) was > 100 µM. For the same compound, the TGI (RXF-631 renal) was > 100 µM.

With `O=C(O)c1ccccc1NCn1c(=S)sc2ccccc21` the TGI (MDA-N) was > 100 µM.

In the case of `O=NNc1ccc(S(=O)(=O)c2ccc3ccccc3c2)cn1`, the TGI (MDA-N) is reported as > 100 µM.

`COc1ccccc1C(=O)N(Cc1ccccc1)c1ccc(Cl)c(C(=O)OC(C)C)c1` was tested, and the TGI (DLD-1 colon) was > 100 µM, the TGI (DMS 273 small cell lung) was 37.5 µM and the TGI (LXFL 529 NSCLC) was > 100 µM. The TGI (M19-MEL melanoma) was > 100 µM, the TGI (MDA-N) was > 100 µM and the TGI (RXF-631 renal) was > 100 µM. For the same compound, the TGI (XF 498 CNS) was 43.4 µM.

`C=C1CC[C@H]2C(C)=CC[C@H]3C(=C)C(=O)O[C@@H]3[C@@H]12` was tested, and the TGI (MDA-N) was > 100 µM.

For `O=C(O)CCCCC1CCSS1` (stereo not given), the TGI (MDA-N) was > 100 µM.

In the case of `NC1=NCN(C2OC(CO)C(O)C2O)C(=O)N1` (stereo not given), the TGI (DLD-1 colon) is reported as 1560 µM, the TGI (DMS 273 small cell lung) is reported as 620 µM and the TGI (M19-MEL melanoma) is reported as 1760 µM. It also gave a TGI (MDA-N) of 381 µM, a TGI (P388 leukemia) of 229 µM and a TGI (P388/ADR leukemia) of 196 µM. For the same compound, the TGI (SN12K1 renal) was 619 µM and the TGI (XF 498 CNS) was 197 µM.

With `CC(=O)OCC1OC(n2c3c(cc(C#N)c2=S)CCCC3)C(OC(C)=O)C(OC(C)=O)C1OC(C)=O` (stereo not given) the TGI (MDA-N) was > 100 µM.

With `CN(C)CCN1CCc2c([nH]c3ccccc23)C1c1cccnc1` (stereo not given) the TGI (DLD-1 colon) was > 100 µM, the TGI (DMS 273 small cell lung) was > 100 µM and the TGI (M19-MEL melanoma) was > 100 µM.

`O=C1OC(=O)C([Se]c2ccccc2)=C1[Se]c1ccccc1` was tested, and the TGI (DLD-1 colon) was > 100 µM, the TGI (LXFL 529 NSCLC) was > 100 µM and the TGI (RXF-631 renal) was > 100 µM.

With `OCC(O)C(O)C(O)c1nn(-c2ccc(F)cc2)c2nc3cc(Cl)c(Cl)cc3nc12` (stereo not given) the TGI (DLD-1 colon) was > 100 µM, the TGI (DMS 273 small cell lung) was 48.2 µM and the TGI (LXFL 529 NSCLC) was > 100 µM. For the same compound, the TGI (M19-MEL melanoma) was 57.8 µM and the TGI (XF 498 CNS) was 24.6 µM.

With `COc1cc2c3cc1Oc1c(OC)c(OC)cc4c1C(Cc1ccc(O)c(c1)Oc1ccc(cc1)CC3N(C)CC2)N(C)CC4` (stereo not given) the TGI (MDA-N) was 60 µM.

For `CC1(C)OC(=O)C(=C2CCC(C(=O)Nc3cccc(C(F)(F)F)c3)N2)C(=O)O1` (stereo not given), the TGI (DLD-1 colon) was > 100 µM, the TGI (DMS 273 small cell lung) was > 100 µM and the TGI (LXFL 529 NSCLC) was > 100 µM. For the same compound, the TGI (M19-MEL melanoma) was > 100 µM and the TGI (XF 498 CNS) was 89.8 µM.

For `COc1cccc(/C=N\NC(=O)C(C)SC(C)C(=O)N/N=C/c2cccc(OC)c2)c1` (stereo not given), the TGI (DLD-1 colon) was > 100 µM, the TGI (DMS 273 small cell lung) was 97 µM and the TGI (LXFL 529 NSCLC) was > 100 µM. For the same compound, the TGI (M19-MEL melanoma) was > 100 µM and the TGI (XF 498 CNS) was > 100 µM.

In the case of `COc1ccc(Br)c(C(=O)N2CCc3ccccc32)c1N`, the TGI (DLD-1 colon) is reported as > 100 µM, the TGI (DMS 273 small cell lung) is reported as 99.3 µM and the TGI (LXFL 529 NSCLC) is reported as > 100 µM. The TGI (M19-MEL melanoma) was > 100 µM and the TGI (XF 498 CNS) was > 100 µM.

`N#[N+]c1ccc(Nc2ccccc2)cc1` was tested, and the GI50 (MDA-N) was > 50 µg/mL and the TGI (MDA-N) was > 50 µg/mL.

In the case of `Cc1cc(Cl)ccc1NC(=O)C1C(=O)N(c2ccc(Cl)cc2C)C(=O)/C1=N\NC(N)=S` (stereo not given), the TGI (DLD-1 colon) is reported as > 100 µM, the TGI (DMS 273 small cell lung) is reported as > 100 µM and the TGI (LXFL 529 NSCLC) is reported as 98.5 µM. For the same compound, the TGI (M19-MEL melanoma) was > 100 µM and the TGI (RXF-631 renal) was > 100 µM.

With `Cc1ccc2ccc(-c3ccccc3)c3c2c1C(=O)c1ccccc1C3=O` the TGI (DLD-1 colon) was > 100 µM, the TGI (DMS 273 small cell lung) was > 100 µM and the TGI (LXFL 529 NSCLC) was > 100 µM. For the same compound, the TGI (M19-MEL melanoma) was > 100 µM and the TGI (XF 498 CNS) was 99.1 µM.

`COc1ccccc1NC(=O)C1=C(C)NC(C)=C(C(=O)Nc2ccccc2OC)C1c1ccco1` was tested, and the TGI (DLD-1 colon) was > 100 µM, the TGI (DMS 273 small cell lung) was > 100 µM and the TGI (LXFL 529 NSCLC) was > 100 µM. For the same compound, the TGI (M19-MEL melanoma) was > 100 µM, the TGI (MDA-N) was > 100 µM and the TGI (RXF-631 renal) was > 92.6 µM. The TGI (XF 498 CNS) was > 100 µM.

For `Nc1ncc2ncn(C3CCC(CO)O3)c2n1` (stereo not given), the TGI (MDA-N) was > 100 µM.

`COc1cc(OC)c2c(=O)c3cccc([N+](=O)[O-])c3n(C)c2c1` was tested, and the TGI (DMS 273 small cell lung) was > 100 µM, the TGI (LXFL 529 NSCLC) was > 100 µM and the TGI (RXF-631 renal) was > 100 µM. The TGI (XF 498 CNS) was > 100 µM.

In the case of `CC1OC(OC2C(O)C(O)C(O)C(O)C2O)C(N)CC1N=C(N)C(=O)O` (stereo not given), the TGI (MDA-N) is reported as > 100 µM.

In the case of `Clc1ccc(CN2CCCN(Cc3ccc(Cl)cc3)C2c2cc3ccccc3c3ccccc23)cc1`, the TGI (MDA-N) is reported as > 100 µM.

In the case of `NCCCN=c1ccc2c3c1c(O)c1c(O)ccc(=O)c1c3[nH]n2CCNCCO`, the TGI (DLD-1 colon) is reported as 159 µM, the TGI (DMS 273 small cell lung) is reported as 0.403 µM and the TGI (M19-MEL melanoma) is reported as > 250 µM. For the same compound, the TGI (MDA-N) was 8.37 µM, the TGI (P388 leukemia) was 6.13 µM and the TGI (P388/ADR leukemia) was 100 µM. It also gave a TGI (SN12K1 renal) of 16.3 µM and a TGI (XF 498 CNS) of 6.05 µM.

`O=C1C(=O)C2(CC1S(=O)(=O)c1ccccc1)c1ccccc1-c1ccccc12` (stereo not given) gave a TGI (DLD-1 colon) of 66.1 µM, a TGI (DMS 273 small cell lung) of 36.2 µM and a TGI (LXFL 529 NSCLC) of 31 µM.

`C1=CC2CCC1CN2CCC1CNc2ccccc21` (stereo not given) was tested, and the TGI (DLD-1 colon) was > 100 µM, the TGI (DMS 273 small cell lung) was > 100 µM and the TGI (LXFL 529 NSCLC) was > 100 µM. For the same compound, the TGI (M19-MEL melanoma) was > 100 µM and the TGI (XF 498 CNS) was > 100 µM.

For `COc1cc2c(c(OC)c1OC)C(=O)NCCC2`, the TGI (DLD-1 colon) was > 100 µM, the TGI (DMS 273 small cell lung) was > 100 µM and the TGI (LXFL 529 NSCLC) was > 100 µM. For the same compound, the TGI (M19-MEL melanoma) was > 100 µM, the TGI (P388 leukemia) was > 100 µM and the TGI (P388/ADR leukemia) was > 100 µM. For the same compound, the TGI (SN12K1 renal) was > 100 µM and the TGI (XF 498 CNS) was > 100 µM.

`Cc1ccc(OC(=O)N2C/C(=C\c3ccccc3)C(=O)/C(=C/c3ccccc3)C2)cc1` showed a TGI (DLD-1 colon) of 28.1 µM, a TGI (DMS 273 small cell lung) of 18.1 µM and a TGI (LXFL 529 NSCLC) of 30.6 µM. The TGI (M19-MEL melanoma) was 18.9 µM, the TGI (MDA-N) was 15.3 µM and the TGI (RXF-631 renal) was > 100 µM. It also gave a TGI (XF 498 CNS) of 49.1 µM.

With `COc1cc(N(C)C)c(OC)cc1C=C1C=CC=C1` the TGI (MDA-N) was > 100 µM.

For `C[C@H]1CC[P+](C)(c2ccccc2)C1` (stereo not given in full), the TGI (DLD-1 colon) was > 100 µM, the TGI (DMS 273 small cell lung) was > 100 µM and the TGI (LXFL 529 NSCLC) was > 100 µM. The TGI (M19-MEL melanoma) was > 100 µM.

`COc1ccc(C)cc1NC(=S)C#N` was tested, and the TGI (MDA-N) was > 100 µM.

With `COc1ccc(/C=N/NS(=O)(=O)c2ccccc2)cc1` the TGI (DLD-1 colon) was > 100 µM, the TGI (DMS 273 small cell lung) was > 100 µM and the TGI (LXFL 529 NSCLC) was > 100 µM. For the same compound, the TGI (M19-MEL melanoma) was > 100 µM and the TGI (XF 498 CNS) was > 100 µM.

For `CCCCC1(C(NC(=O)c2ccccc2Cl)c2ccncc2)C(=O)N(c2ccccc2)N(c2ccccc2)C1=O` (stereo not given), the TGI (DLD-1 colon) was > 100 µM, the TGI (DMS 273 small cell lung) was > 100 µM and the TGI (LXFL 529 NSCLC) was > 100 µM. For the same compound, the TGI (M19-MEL melanoma) was > 100 µM and the TGI (XF 498 CNS) was > 100 µM.
